Assay results taken from patent US20190292189A1, “LIM KINASE INHIBITORS” (VIRONGY, LLC, priority 2016, published 2019).
Where two headings read alike, the source gives them in different places.

Key:
ROCK-II = ROCK-II (Homo sapiens, UniProt O75116); experiment: ROCK-II biochemical counter-screen
Limk1 = Limk1 (Homo sapiens, UniProt P53667); experiment: Limk1 biochemical assay (Reaction Biology, 10-dose IC50); design: His; purchased Reaction Biology Corporation; host or cells: insect cells; settings: for Limk1 inhibition: compared with 14a, values only in FIG. 4
[1] = Plasma pharmacokinetics studies on rats; settings: rats; for AUC (iv) / Cl (iv) / T1/2 (iv) / Yd (iv) / Cmax: iv dosing 1 mg/kg; for F (%) (po): po dosing 2 mg/kg; for Cmax: read-out: Cmax (iv)
Procedure: In vivo pharmacokinetics (PK) studies were conducted for selected compounds during the whole optimization at various stages in order to identify structural elements that are favorable for in vivo applications, and/or to evaluate the feasibility of optimized Limk inhibitors for animal studies.

ROCK-I = ROCK-I (Homo sapiens, UniProt Q13464); experiment: ROCK-I biochemical counter-screen; settings: Table 6; read-out: Biochemical Inhibition IC50 (nM) ROCK-I
P450 2C9 = P450 2C9 (Homo sapiens, UniProt P11712); experiment: P450 inhibition at 10 μM; type: in vitro ADME
P450 2D6 = P450 2D6 (Homo sapiens, UniProt P10635); experiment: P450 inhibition at 10 μM; type: in vitro ADME
P450 3A4 = P450 3A4 (Homo sapiens, UniProt P08684); experiment: P450 inhibition at 10 μM; type: in vitro ADME
[2] = Microsomal stability, human liver microsomes; type: in vitro ADME
[3] = Microsomal stability, rat liver microsomes; type: in vitro ADME; settings: rat liver microsomes
P450 1A2 = molecular target: T1, P450 1A2 (Homo sapiens, UniProt P05177); settings: 10 μM
T1 sequence (P05177 1-516): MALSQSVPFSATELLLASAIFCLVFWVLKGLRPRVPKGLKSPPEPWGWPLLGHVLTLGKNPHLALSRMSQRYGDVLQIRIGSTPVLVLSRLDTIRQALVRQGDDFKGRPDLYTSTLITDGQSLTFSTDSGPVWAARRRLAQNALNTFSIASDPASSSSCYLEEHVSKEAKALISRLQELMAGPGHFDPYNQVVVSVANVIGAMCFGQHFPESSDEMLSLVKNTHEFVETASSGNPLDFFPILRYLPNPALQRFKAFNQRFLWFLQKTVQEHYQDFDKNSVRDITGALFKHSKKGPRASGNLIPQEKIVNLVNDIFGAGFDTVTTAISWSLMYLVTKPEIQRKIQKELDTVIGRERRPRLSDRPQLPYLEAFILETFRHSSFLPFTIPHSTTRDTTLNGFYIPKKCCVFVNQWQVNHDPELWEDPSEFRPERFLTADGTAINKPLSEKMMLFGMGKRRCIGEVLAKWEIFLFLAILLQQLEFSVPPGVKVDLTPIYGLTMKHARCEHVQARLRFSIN

[4] = Table 1, means of ≥2 experiments, read-out: IC50 (nM) ROCK-II
[5] = Table 1, means of ≥2 experiments, read-out: IC50 (nM) Limk1
[6] = Table 3, means of ≥2 experiments, read-out: IC50 (nM) ROCK-II
[7] = Table 3, means of ≥2 experiments, read-out: IC50 (nM) Limk1
[8] = Table 4, means of ≥2 experiments, read-out: IC50 (nM) ROCK-II
[9] = Table 4, means of ≥2 experiments, read-out: IC50 (nM) Limk1

Sequence of ROCK-II (O75116 whole entry, species assumed): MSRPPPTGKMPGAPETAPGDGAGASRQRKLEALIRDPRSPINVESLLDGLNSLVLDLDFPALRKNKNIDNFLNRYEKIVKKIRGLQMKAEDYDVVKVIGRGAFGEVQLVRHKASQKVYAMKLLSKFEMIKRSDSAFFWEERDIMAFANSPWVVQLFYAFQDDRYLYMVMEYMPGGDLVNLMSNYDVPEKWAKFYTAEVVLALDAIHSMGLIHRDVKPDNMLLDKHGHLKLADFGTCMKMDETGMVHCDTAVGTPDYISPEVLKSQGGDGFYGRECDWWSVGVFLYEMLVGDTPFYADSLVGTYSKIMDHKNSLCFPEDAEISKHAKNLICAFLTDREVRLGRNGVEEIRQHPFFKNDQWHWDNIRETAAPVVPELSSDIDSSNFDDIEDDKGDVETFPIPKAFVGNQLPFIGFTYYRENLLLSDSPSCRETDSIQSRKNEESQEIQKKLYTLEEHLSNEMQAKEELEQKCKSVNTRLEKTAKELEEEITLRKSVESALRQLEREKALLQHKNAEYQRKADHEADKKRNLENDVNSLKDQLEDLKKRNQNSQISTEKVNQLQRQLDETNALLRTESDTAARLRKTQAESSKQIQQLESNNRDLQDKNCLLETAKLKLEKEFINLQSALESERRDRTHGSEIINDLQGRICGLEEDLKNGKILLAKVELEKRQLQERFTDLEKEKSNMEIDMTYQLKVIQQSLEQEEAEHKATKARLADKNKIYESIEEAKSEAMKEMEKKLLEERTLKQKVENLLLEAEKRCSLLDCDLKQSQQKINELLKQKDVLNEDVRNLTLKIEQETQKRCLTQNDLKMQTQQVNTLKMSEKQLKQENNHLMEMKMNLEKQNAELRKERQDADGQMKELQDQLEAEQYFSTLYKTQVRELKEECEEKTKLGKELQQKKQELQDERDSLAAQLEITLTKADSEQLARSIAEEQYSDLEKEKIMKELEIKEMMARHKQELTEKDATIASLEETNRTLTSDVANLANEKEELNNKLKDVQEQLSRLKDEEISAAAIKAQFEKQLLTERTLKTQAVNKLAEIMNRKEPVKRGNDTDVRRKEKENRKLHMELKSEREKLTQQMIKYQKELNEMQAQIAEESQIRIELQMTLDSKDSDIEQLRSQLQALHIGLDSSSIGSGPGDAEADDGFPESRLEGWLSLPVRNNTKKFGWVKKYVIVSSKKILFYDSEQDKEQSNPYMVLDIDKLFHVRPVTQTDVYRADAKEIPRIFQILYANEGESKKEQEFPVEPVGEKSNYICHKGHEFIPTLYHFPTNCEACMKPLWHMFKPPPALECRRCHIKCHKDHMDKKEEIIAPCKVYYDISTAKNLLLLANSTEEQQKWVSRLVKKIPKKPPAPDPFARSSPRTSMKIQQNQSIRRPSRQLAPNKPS
Sequence of Limk1 (P53667 285-638): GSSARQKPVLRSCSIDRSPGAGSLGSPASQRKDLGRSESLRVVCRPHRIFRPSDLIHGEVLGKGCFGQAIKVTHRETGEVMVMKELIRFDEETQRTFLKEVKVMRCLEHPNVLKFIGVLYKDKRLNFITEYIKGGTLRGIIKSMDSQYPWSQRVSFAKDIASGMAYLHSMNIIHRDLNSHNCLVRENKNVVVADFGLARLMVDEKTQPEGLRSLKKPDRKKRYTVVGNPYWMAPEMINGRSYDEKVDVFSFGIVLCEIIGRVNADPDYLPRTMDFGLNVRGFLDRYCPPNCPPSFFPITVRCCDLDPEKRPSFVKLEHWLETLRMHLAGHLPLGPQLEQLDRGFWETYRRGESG
Sequence of ROCK-I (Q13464 whole entry, species assumed): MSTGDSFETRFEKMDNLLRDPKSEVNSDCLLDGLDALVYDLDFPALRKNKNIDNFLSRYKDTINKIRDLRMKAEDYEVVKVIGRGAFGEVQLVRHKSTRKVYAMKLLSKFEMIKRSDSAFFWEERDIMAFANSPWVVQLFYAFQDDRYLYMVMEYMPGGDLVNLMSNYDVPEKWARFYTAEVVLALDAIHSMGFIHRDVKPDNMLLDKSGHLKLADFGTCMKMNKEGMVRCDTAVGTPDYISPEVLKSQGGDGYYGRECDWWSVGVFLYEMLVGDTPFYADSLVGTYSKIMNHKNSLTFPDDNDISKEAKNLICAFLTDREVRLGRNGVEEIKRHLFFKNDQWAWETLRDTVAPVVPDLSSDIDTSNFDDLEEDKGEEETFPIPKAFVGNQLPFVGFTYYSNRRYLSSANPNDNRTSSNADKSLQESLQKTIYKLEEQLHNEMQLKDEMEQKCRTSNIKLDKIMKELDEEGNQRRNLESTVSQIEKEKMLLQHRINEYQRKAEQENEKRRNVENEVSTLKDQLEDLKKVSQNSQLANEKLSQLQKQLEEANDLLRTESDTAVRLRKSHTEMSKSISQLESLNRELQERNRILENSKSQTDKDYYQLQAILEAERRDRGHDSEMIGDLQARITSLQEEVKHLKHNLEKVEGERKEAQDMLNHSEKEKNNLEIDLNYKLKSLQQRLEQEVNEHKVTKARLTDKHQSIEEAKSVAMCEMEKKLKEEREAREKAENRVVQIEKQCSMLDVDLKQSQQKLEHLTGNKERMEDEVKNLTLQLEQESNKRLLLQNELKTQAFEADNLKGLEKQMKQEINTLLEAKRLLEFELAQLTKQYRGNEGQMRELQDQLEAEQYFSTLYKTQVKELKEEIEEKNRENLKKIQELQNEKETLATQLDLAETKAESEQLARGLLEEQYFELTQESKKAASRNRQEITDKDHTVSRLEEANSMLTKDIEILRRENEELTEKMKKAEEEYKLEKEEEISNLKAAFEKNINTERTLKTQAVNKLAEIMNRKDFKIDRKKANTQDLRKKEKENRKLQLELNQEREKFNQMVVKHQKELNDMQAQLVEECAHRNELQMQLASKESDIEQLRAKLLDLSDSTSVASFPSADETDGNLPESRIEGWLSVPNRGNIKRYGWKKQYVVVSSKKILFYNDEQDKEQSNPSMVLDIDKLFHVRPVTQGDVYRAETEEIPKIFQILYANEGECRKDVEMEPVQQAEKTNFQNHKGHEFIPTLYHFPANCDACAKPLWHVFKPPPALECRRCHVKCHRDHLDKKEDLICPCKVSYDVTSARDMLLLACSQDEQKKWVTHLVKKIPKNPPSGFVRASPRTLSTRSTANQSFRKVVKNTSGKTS
Sequence of P450 2D6 (P10635 whole entry): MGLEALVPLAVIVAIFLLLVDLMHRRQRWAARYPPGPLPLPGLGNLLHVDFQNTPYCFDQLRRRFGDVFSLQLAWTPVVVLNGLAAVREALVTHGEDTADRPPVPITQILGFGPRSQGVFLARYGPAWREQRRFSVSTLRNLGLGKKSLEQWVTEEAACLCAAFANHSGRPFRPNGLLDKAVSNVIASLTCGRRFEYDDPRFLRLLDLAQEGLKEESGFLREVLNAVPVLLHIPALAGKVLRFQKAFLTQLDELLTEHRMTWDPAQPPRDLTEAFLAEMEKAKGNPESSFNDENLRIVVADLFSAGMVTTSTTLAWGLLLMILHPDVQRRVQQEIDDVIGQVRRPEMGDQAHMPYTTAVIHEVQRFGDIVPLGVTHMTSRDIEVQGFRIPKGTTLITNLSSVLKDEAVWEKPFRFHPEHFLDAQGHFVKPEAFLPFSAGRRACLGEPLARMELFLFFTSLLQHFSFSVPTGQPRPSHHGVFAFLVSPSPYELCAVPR
Sequence of P450 2C9 (P11712 whole entry): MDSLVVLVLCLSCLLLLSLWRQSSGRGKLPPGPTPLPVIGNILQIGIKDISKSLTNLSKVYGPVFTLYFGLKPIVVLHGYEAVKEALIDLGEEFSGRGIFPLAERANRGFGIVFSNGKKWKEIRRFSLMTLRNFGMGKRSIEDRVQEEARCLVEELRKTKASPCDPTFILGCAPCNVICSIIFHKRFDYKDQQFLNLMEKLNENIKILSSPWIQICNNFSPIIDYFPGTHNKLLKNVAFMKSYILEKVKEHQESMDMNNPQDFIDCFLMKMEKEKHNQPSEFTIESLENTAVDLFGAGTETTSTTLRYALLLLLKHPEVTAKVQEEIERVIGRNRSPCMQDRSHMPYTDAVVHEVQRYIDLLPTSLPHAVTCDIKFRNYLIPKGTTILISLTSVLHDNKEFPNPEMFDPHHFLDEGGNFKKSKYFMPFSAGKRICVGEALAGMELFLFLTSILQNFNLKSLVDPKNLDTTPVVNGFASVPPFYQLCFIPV
Sequence of P450 3A4 (P08684 whole entry): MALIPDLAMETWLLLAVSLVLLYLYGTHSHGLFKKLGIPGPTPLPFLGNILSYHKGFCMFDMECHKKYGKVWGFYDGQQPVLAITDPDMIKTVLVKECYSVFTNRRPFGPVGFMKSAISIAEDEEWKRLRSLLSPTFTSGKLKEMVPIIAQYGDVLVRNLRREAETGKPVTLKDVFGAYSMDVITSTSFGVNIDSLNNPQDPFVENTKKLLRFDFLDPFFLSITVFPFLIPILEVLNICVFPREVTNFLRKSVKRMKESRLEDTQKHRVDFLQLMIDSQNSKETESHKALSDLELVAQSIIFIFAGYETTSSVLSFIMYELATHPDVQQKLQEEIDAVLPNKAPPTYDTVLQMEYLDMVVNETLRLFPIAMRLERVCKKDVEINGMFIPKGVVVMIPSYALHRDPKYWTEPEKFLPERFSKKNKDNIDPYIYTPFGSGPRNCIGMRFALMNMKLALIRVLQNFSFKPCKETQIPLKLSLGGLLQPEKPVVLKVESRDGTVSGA

Structure (SMILES): CC(C)NC(=O)c1cccc(NC(=O)Nc2ccc(-c3ncnc4[nH]ccc34)cc2)c1 [Compound 3, 3-(3-(4-(7H-pyrrolo[2,3-d]pyrimidin-4-yl)phenyl)ureido)-N-isopropylbenzamide]
- IC50 (ROCK-II; [4]): 1360 nM
- IC50 (Limk1; read-out: Limk1 IC50): 201 nM

Structure (SMILES): CC(C)NC(=O)c1cccc(NC(=O)Nc2ccc(-c3cn[nH]c3)cc2)c1 [Compound 7a, 3-(3-(4-(1H-pyrazol-4-yl)phenyl)ureido)-N-isopropylbenzamide]
- IC50 (ROCK-II; [4]): 45 nM
- IC50 (Limk1; [5]): > 10000 nM

Structure (SMILES): CC(C)NC(=O)c1cccc(NC(=O)Nc2ccc(-c3ccncc3)cc2)c1 [Compound 7b, N-Isopropyl-3-(3-(4-(pyridin-4-yl)phenyl)ureido)benzamide]
- IC50 (ROCK-II; [4]): 90 nM
- IC50 (Limk1; [5]): > 10000 nM

Structure (SMILES): CC(C)NC(=O)c1cccc(NC(=O)Nc2ccc(-c3ccnc(N)n3)cc2)c1 [Compound 7c, 3-(3-(4-(2-Aminopyrimidin-4-yl)phenyl)ureido)-N-isopropylbenzamide]
- IC50 (ROCK-II; [4]): 166 nM
- IC50 (Limk1; [5]): > 10000 nM

Structure (SMILES): Cc1c[nH]c2ncnc(-c3ccc(NC(=O)Nc4cccc(C(=O)NC(C)C)c4)cc3)c12 [Compound 7g, N-Isopropyl-3-(3-(4-(5-methyl-7H-pyrrolo[2,3-d]pyrimidin-4-yl)phenyl)ureido)benzamide]
- AUC (iv) [1]: 4.3 µM·h
- Cl (iv) [1]: 9.0 mL/min/kg
- T1/2 (iv) [1]: 1.0 h
- Yd (iv) [1]: 0.3 L/kg
- F (%) (po) [1]: 0%
- Cmax [1]: 8.5 µM

Structure (SMILES): Cc1cc2c(-c3ccc(NC(=O)Nc4cccc(C(=O)NC(C)C)c4)cc3)ncnc2[nH]1 [Compound 7h, N-Isopropyl-3-(3-(4-(6-methyl-7H-pyrrolo[2,3-d]pyrimidin-4-yl)phenyl)ureido)benzamide]
- IC50 (ROCK-II; [4]): > 10000 nM
- IC50 (Limk1; [5]): 80 nM

Structure (SMILES): Cc1[nH]c2ncnc(-c3ccc(NC(=O)Nc4cccc(C(=O)NC(C)C)c4)cc3)c2c1C [Compound 7i, 3-(3-(4-(5,6-Dimethyl-7H-pyrrolo[2,3-d]pyrimidin-4-yl)phenyl)ureido)-N-isopropylbenzamide]
- IC50 (ROCK-II; [4]): > 10000 nM
- IC50 (ROCK-I): > 20000 nM
- P450 % inh. at 10 μM 2C9 (P450 2C9): 42%
- P450 % inh. at 10 μM 2D6 (P450 2D6): 34%
- P450 % inh. at 10 μM 3A4 (P450 3A4): 42%
- Microsomal Stability t1/2 (min) Human [2]: 47 min
- Microsomal Stability t1/2 (min) Rat [3]: >120 min
- P450 % inh. at 10 μM 1A2 (P450 1A2): 77%
- IC50 (Limk1; [5]): 80 nM

Structure (SMILES): Cc1c[nH]c2ncnc(-c3ccc(NC(=O)Nc4cccc(C(=O)NC(C)C)c4)c(C(F)(F)F)c3)c12 [Compound 7j, N-Isopropyl-3-(3-(4-(5-methyl-7H-pyrrolo[2,3-d]pyrimidin-4-yl)-2-(trifluoromethyl)phenyl)ureido)-benzamide]
- IC50 (ROCK-II; read-out: ROCK-II IC50): 976 nM
- IC50 (Limk1; read-out: Limk1 IC50): 60 nM

Structure (SMILES): Cc1c[nH]c2ncnc(-c3ccc(NC(=O)Nc4cccc(C(=O)NC(C)C)c4)c(OCCN(C)C)c3)c12 [Compound 7l, 3-(3-(2-(2-(Dimethylamino)ethoxy)-4-(5-methyl-7H-pyrrolo[2,3-d]pyrimidin-4-yl)phenyl)ureido)-N-isopropylbenzamide]
- IC50 (ROCK-II; Table 2, means of ≥2 experiments, read-out: IC50 (nM) ROCK-II): 7080 nM
- IC50 (Limk1; Table 2, means of ≥2 experiments, read-out: IC50 (nM) Limk1): 710 nM

Structure (SMILES): Cc1c[nH]c2ncnc(-c3ccc(NC(=O)Nc4ccccc4)cc3)c12 [Compound 10a, 1-(4-(5-Methyl-7H-pyrrolo[2,3-d]pyrimidin-4-yl)phenyl)-3-phenylurea]
- IC50 (ROCK-II; read-out: ROCK-II IC50): 2360 nM
- AUC (iv) [1]: 14.3 µM·h
- Cl (iv) [1]: 3.4 mL/min/kg
- T1/2 (iv) [1]: 1.6 h
- Yd (iv) [1]: 0.5 L/kg
- F (%) (po) [1]: 16%
- Cmax [1]: 7 µM
- IC50 (Limk1; read-out: Limk1 IC50): 142 nM

Structure (SMILES): Cc1c[nH]c2ncnc(-c3ccc(NC(=O)Nc4cccc(F)c4)cc3)c12 [Compound 10b, 1-(3-Fluorophenyl)-3-(4-(5-methyl-7H-pyrrolo[2,3-d]pyrimidin-4-yl)phenyl)urea]
- IC50 (ROCK-II; [6]): 5420 nM
- IC50 (Limk1; read-out: Limk1 IC50): 315 nM

Structure (SMILES): COc1ccccc1NC(=O)Nc1ccc(-c2ncnc3[nH]cc(C)c23)cc1 [Compound 10c, 1-(2-Methoxyphenyl)-3-(4-(5-methyl-7H-pyrrolo[2,3-d]pyrimidin-4-yl)phenyl)urea]
- IC50 (ROCK-II; [6]): 6650 nM
- IC50 (Limk1; read-out: Limk1 IC50): 283 nM

Structure (SMILES): COc1cccc(NC(=O)Nc2ccc(-c3ncnc4[nH]cc(C)c34)cc2)c1 [Compound 10d, 1-(3-Methoxyphenyl)-3-(4-(5-methyl-7H-pyrrolo[2,3-d]pyrimidin-4-yl)phenyl)urea]
- IC50 (ROCK-II; [6]): 2570 nM
- IC50 (Limk1; [7]): 75 nM

Structure (SMILES): COc1ccc(NC(=O)Nc2ccc(-c3ncnc4[nH]cc(C)c34)cc2)cc1 [Compound 10e, 1-(4-Methoxyphenyl)-3-(4-(5-methyl-7H-pyrrolo[2,3-d]pyrimidin-4-yl)phenyl)urea]
- IC50 (ROCK-II; [6]): > 10000 nM
- IC50 (ROCK-II; read-out: ROCK-II IC50): > 10000 nM

Structure (SMILES): Cc1c[nH]c2ncnc(-c3ccc(NC(=O)Nc4nccs4)cc3)c12 [Compound 10f, 1-[4-(5-Methyl-7H-pyrrolo[2,3-d]pyrimidin-4-yl)-phenyl]-3-thiazol-2-yl-urea]
- IC50 (ROCK-II; [6]): 2290 nM
- IC50 (Limk1; [7]): 203 nM

Structure (SMILES): Cc1c[nH]c2ncnc(-c3ccc(NC(=O)Nc4ccccn4)cc3)c12 [Compound 10g, 1-[4-(5-Methyl-7H-pyrrolo[2,3-d]pyrimidin-4-yl)-phenyl]-3-pyridin-2-yl-urea]
- IC50 (ROCK-II; [6]): > 10000 nM
- IC50 (Limk1; [7]): 4510 nM

Structure (SMILES): COc1ccc(NC(=O)N(C)c2ccc(-c3ncnc4[nH]cc(C)c34)cc2)cc1 [Compound 14a, 3-(4-Methoxyphenyl)-1-methyl-1-(4-(5-methyl-7H-pyrrolo[2,3-d]pyrimidin-4-yl)phenyl)urea]
- IC50 (Limk1; read-out: Limk1 IC50): 1090 nM

Structure (SMILES): COc1ccc(NC(=O)N(CCN2CCCC2)c2ccc(-c3ncnc4[nH]cc(C)c34)cc2)cc1 [Compound 14b, 3-(4-Methoxyphenyl)-1-(4-(5-methyl-7H-pyrrolo[2,3-d]pyrimidin-4-yl)phenyl)-1-(2-(pyrrolidin-1-yl)ethyl)urea]
- Limk1 inhibition (Limk1): even lower Limk1 inhibitions

Structure (SMILES): COc1ccc(NC(=O)N(CCN2CCCCC2)c2ccc(-c3ncnc4[nH]cc(C)c34)cc2)cc1 [Compound 14c, 3-(4-Methoxyphenyl)-1-(4-(5-methyl-7H-pyrrolo[2,3-d]pyrimidin-4-yl)phenyl)-1-(2-(piperidin-1-yl)ethyl)urea]
- Limk1 inhibition (Limk1): even lower Limk1 inhibitions

Structure (SMILES): Cc1c[nH]c2ncnc(-c3ccc(NC(=O)N(CCO)c4ccccc4F)cc3)c12 [Compound 18c, 1-(2-Fluorophenyl)-1-(2-hydroxyethyl)-3-(4-(5-methyl-7H-pyrrolo[2,3-d]pyrimidin-4-yl)phenyl)urea]
- IC50 (ROCK-II; [8]): 1600 nM

Structure (SMILES): Cc1c[nH]c2ncnc(-c3ccc(NC(=O)N(CCO)c4cccc(F)c4)cc3)c12 [Compound 18d, 1-(3-Fluorophenyl)-1-(2-hydroxyethyl)-3-(4-(5-methyl-7H-pyrrolo[2,3-d]pyrimidin-4-yl)phenyl)urea]
- IC50 (ROCK-II; [8]): 1900 nM

Structure (SMILES): Cc1ccccc1N(CCO)C(=O)Nc1ccc(-c2ncnc3[nH]cc(C)c23)cc1 [Compound 18i, 1-(2-Hydroxyethyl)-3-(4-(5-methyl-7H-pyrrolo[2,3-d]pyrimidin-4-yl)phenyl)-1-o-tolylurea]
- IC50 (ROCK-II; [8]): > 10000 nM

Structure (SMILES): Cc1cccc(N(CCO)C(=O)Nc2ccc(-c3ncnc4[nH]cc(C)c34)cc2)c1 [Compound 18j, 1-(2-Hydroxyethyl)-3-(4-(5-methyl-7H-pyrrolo[2,3-d]pyrimidin-4-yl)phenyl)-1-m-tolylurea]
- IC50 (ROCK-II; [8]): 8940 nM
- IC50 (Limk1; [9]): 151 nM

Structure (SMILES): COc1ccc(N(CCN)C(=O)Nc2ccc(-c3ncnc4[nH]cc(C)c34)cc2)cc1 [Compound 18o, 1-(2-Aminoethyl)-1-(4-methoxyphenyl)-3-(4-(5-methyl-7H-pyrrolo[2,3-d]pyrimidin-4-yl)phenyl)urea]
- AUC (iv) [1]: 1.1 µM·h
- Cl (iv) [1]: 36.0 mL/min/kg
- T1/2 (iv) [1]: 4.6 h
- Yd (iv) [1]: 6.0 L/kg
- F (%) (po) [1]: 0%
- Cmax [1]: 2.2 µM
- IC50 (Limk1; [9]): 27 nM

Structure (SMILES): COc1ccc(N(CCN(C)C)C(=O)Nc2ccc(-c3ncnc4[nH]cc(C)c34)cc2)cc1 [Compound 18q, 1-(2-(Dimethylamino)ethyl)-1-(4-methoxyphenyl)-3-(4-(5-methyl-7H-pyrrolo[2,3-d]pyrimidin-4-yl)phenyl)urea]
- IC50 (ROCK-II; [8]): > 10000 nM
- IC50 (ROCK-II; read-out: ROCK-II IC50): > 10000 nM
